Counter-ions that a name gives are not always drawn.

One may read the melting point as the temperature of the solid-liquid transition. Turning to `Nc1cccc(-c2ccc(CCN3Cc4ccccc4CC3C(=O)O)cc2)n1` (stereo not shown) (as salt: hydrochloride) [Example 28, 2-{2-[4-(6-Amino-pyridin-2-yl)-phenyl]ethyl}-1,2,3,4-tetrahydro-isoquinoline-3-carboxylic acid], the melting point was 110 °C (dec.).

Regarding `Nc1cccc(-c2ccc(CCNC34CC5CC(CC(C5)C3)C4)cc2)n1` (as salt: hydrochloride) [Example 115, 6-{4-[2-(Adamantan-1-ylamino)-ethyl]-phenyl}-pyridin-2-ylamine], the melting point is 200 to 220 °C (dec.). The value for `Nc1cccc(-c2ccc(CCN3CCN(C(=O)NC4CCCCC4)CC3)cc2)n1` [Example 32, 4-{2-[4-(6-Amino-pyridin-2-yl)-phenyl]-ethyl}-piperazine-1-carboxylic acid cyclohexylamide] was 180 to 182 °C; that for `Nc1cccc(-c2ccc(CCN3CCN(c4nnnn4-c4ccccc4)CC3)cc2)n1` [Example 27, 6-(4-{2-[4-(1 -Phenyl-1H-tetrazol-5-yl)-piperazin-1-yl]-ethyl}-phenyl)-pyridin-2-ylamine] was 212 to 214 °C.

The record behind these values is patent US6465491B2, “6-phenylpyridyl-2-amine derivatives” (Pfizer Inc., priority 1996, dated 2002).
